Laboratory results: US12528783B2, “PqsR inverse agonists” (priority 2020, dated 2026)
pIC50: −log10 of the molar value.

What was measured:
PqsR = biological target: T1, PqsR (Pseudomonas aeruginosa, UniProt Q9I4X0); test: PqsR inverse agonistic activity, reporter gene assay in E. coli; assay type: cell-based
T1 construct: expressed in transfected cells; host or cells: Escherichia coli DH5a carrying pEAL08-2
Description: Inhibition of pqsR-dependent gene expression of test compounds was determined in an E. coli based-galactosidase reporter gene assay. Escherichia coli DH5a was transfected with pEAL08-2 plasmid encoding pqsR under control of promoter tac and β-galactosidase reporter gene lacZ under control of promoter pqsA. Antagonistic effects of compounds were evaluated in the presence of/in competition to 50 nM PQS. A positive control was used to ensure the reliability of individual assays. First, PQS was diluted in methanol and added to the wells of a glass coated 96-deep-well plate, and the solvent was evaporated. Then, compounds were added in 5 μL DMSO to final concentrations of 0.001-10 μM. Overnight cultures of E. coli DH5a×pEAL08-2 were diluted 1:100 in LB medium with ampicillin (50 μg/ml) and incubated at 37° C. with shaking until it reached an OD600 of 0.2. Finally, 995 μL of culture was added to each well and the β-galactosidase activity was determined by ortho-nitrophenyl-β-galactoside conversion in permeabilized cells after a 2.5 h incubation period (37° C., 180 rpm). OD600, OD420, and OD550 were measured using POLARstar Omega (BMG Labtech, Ortenberg, Germany), and the activity was expressed as ratio of the slope of B-galactosidase activity between basal control (no PQS) and solvent control. IC50 values of antagonists were determined by variation of the concentration of the test compounds.

[1] = test system: P. aeruginosa pyocyanin production; test: Pyocyanin assay; assay type: cell-based; conditions: Pseudomonas aeruginosa, PA14, 16 h, read-out: IC50-value towards pyocyanin production, PA14 in PPGAS medium, 16 h
Description: Inhibition of P. aeruginosa pyocyanin production by compounds was determined photometrically as described before. In short, an overnight culture of PA14 in PPGAS medium was washed, diluted in medium to a start OD600 of 0.02, and incubated for 16 h (37° C., 200 rpm, relative humidity 75%) in the presence of test compounds. Then, cultures were extracted with chloroform and re-extracted with 0.2 M HCl. Protonated red colored pyocyanin was determined by measuring OD520 and normalizing to OD600.

[2] = Kinetic Turbidimetric Aqueous Solubility; assay type: physicochemical; conditions: aqueous buffer, kinetic from dmso stock, PBS buffer, room temperature
Description: Kinetic Turbidimetric Aqueous Solubility at room temperature for 5 min. Test compound was diluted in PBS buffer to give a range of concentrations (typically 0.4, 2, 4, 20, 40, 100, and 200 μM, final DMSO concentration 2%) and incubated at room temperature for 5 min. Absorbance was measured at a wavelength of 620 nm and the solubility was estimated from the concentration of test compound that produces an increase in absorbance above the vehicle control (i.e., […]). Data was analyzed by fitting a four parameter sigmoidal function to the measured and normalized absorbances and AUC calculation providing access to Log S (decadic logarithm of the solubility).

T1 sequence (Q9I4X0 whole entry): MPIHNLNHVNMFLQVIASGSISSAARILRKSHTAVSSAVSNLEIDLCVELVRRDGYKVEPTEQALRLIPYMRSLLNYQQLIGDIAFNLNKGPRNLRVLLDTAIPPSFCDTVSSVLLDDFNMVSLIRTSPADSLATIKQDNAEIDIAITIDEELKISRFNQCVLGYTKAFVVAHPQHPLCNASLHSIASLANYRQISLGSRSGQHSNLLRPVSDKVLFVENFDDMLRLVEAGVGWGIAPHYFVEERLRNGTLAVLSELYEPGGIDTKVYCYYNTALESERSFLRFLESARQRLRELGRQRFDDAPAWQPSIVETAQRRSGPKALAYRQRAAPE

Structure (SMILES) | pIC50 (PqsR) | pIC50 [1] | solubility at 5 min [2] [µM]
Cc1cc(Nc2ccccc2)cc2nc(CSc3ccnc(C(F)(F)F)c3)[nH]c12 [Compound 59] | ≥ 7.30 | 6.70 to 7.00 | > 10
Fc1ccccc1Nc1ccc(-n2cc(CNc3ccnc(C(F)(F)F)c3)nn2)cc1 [Compound 01] | ≥ 7.30 | 6.30 to 6.70 | > 50
COc1cc(F)cc(Nc2ccc3[nH]c(CSc4ccnc(C(F)(F)F)c4)nc3c2)c1 [Compound 54] |  | 6.30 to 6.70 | > 25
Cc1c(F)cc(Nc2ccc3[nH]c(CSc4ccnc(C(F)(F)F)c4)nc3c2)cc1F [Compound 55] |  | 6.70 to 7.00 | > 10
Fc1cccc(Nc2ccc3[nH]c(CNc4ccnc(C(F)(F)F)c4)nc3c2)c1 [Compound 61] | ≥ 7.30 | ≥ 7.00 | ≥ 100
Fc1cccc(Nc2ccc3[nH]c(CSc4ccnc(C(F)(F)F)c4)nc3c2)c1 [Compound 23] |  | ≥ 7.00 | > 10
Fc1cccc(Nc2cccc(-n3cc(CNc4ccnc(C(F)(F)F)c4)nn3)c2)c1 [Compound 03] |  | 6.70 to 7.00 | > 10
FC(F)(F)c1cc(SCc2nc3cc(Nc4cccnc4)ccc3[nH]2)ccn1 [Compound 19] |  | 6.00 to 6.30 | ≥ 100
FC(F)(F)c1cc(SCc2nc3cc(Nc4cccc(Cl)c4)ccc3[nH]2)ccn1 [Compound 28] |  |  | > 10
Fc1ccc(Nc2cccc(-n3cc(CNc4ccnc(C(F)(F)F)c4)nn3)c2)cc1 [Compound 05] | ≥ 7.30 | 6.30 to 6.70 | > 25
Fc1ccccc1Nc1ccc2[nH]c(CSc3ccnc(C(F)(F)F)c3)nc2c1 [Compound 22] |  |  | > 25
FC(F)(F)c1cc(SCc2nc3ccc(Nc4ccccc4)cc3s2)ccn1 [Compound 16] | 6.60 to 7.29 | 6.00 to 6.30 | 
Nc1cc(SCc2nc3cc(Nc4ccccc4)ccc3[nH]2)nc(C(F)(F)F)n1 [Compound 14] | ≥ 7.30 | 6.70 to 7.00 | > 25
Fc1ccc(Nc2ccc3[nH]c(CSc4ccnc(C(F)(F)F)c4)nc3c2)cc1F [Compound 47] |  | ≥ 7.00 | > 10
FC(F)(F)c1cc(SCc2nc3cc(Nc4ccccn4)ccc3[nH]2)ccn1 [Compound 18] |  | 6.30 to 6.70 | > 50
Fc1cncc(Nc2ccc3[nH]c(CSc4ccnc(C(F)(F)F)c4)nc3c2)c1 [Compound 41] |  | 6.30 to 6.70 | > 50
Fc1cccc(Nc2cc(F)c3[nH]c(CSc4ccnc(C(F)(F)F)c4)nc3c2)c1 [Compound 57] |  | ≥ 7.00 | > 10
Nc1cc(SCc2nc3cc(Nc4ccccc4)ccc3[nH]2)cc(C(F)(F)F)n1 [Compound 13] |  | 6.70 to 7.00 | > 10
Fc1c(Nc2ccc3[nH]c(CSc4ccnc(C(F)(F)F)c4)nc3c2)cccc1C(F)(F)F [Compound 48] |  | 6.70 to 7.00 | 
Cc1ccccc1Nc1ccc2[nH]c(CSc3ccnc(C(F)(F)F)c3)nc2c1 [Compound 29] |  | 6.70 to 7.00 | 
Fc1ccc(Nc2ccc3[nH]c(CSc4ccnc(C(F)(F)F)c4)nc3c2)cc1 [Compound 26] |  |  | > 25
NC(=O)c1ccccc1Nc1ccc2[nH]c(CSc3ccnc(C(F)(F)F)c3)nc2c1 [Compound 35] |  | 6.70 to 7.00 | > 50
Cc1ccc(Nc2ccc3[nH]c(CSc4ccnc(C(F)(F)F)c4)nc3c2)nc1 [Compound 40] |  |  | > 25
FC(F)(F)c1cc(SCc2nc3cc(NC4CCCCC4)ccc3[nH]2)ccn1 [Compound 17] | 6.60 to 7.29 | 6.00 to 6.30 | 
COc1ccc(Nc2ccc3[nH]c(CSc4ccnc(C(F)(F)F)c4)nc3c2)cc1F [Compound 53] |  |  | > 25
Fc1ccccc1Nc1ccc2[nH]c(COc3ccnc(C(F)(F)F)c3)nc2c1 [Compound 63] |  |  | > 10
FC(F)(F)c1cc(SCc2nc3cc(Nc4ccccc4Cl)ccc3[nH]2)ccn1 [Compound 27] |  | ≥ 7.00 | 

Structure (SMILES) | pIC50 (PqsR) | pIC50 [1] | solubility at 5 min [2] [µM]
Fc1cc(F)cc(Nc2ccc3[nH]c(CSc4ccnc(C(F)(F)F)c4)nc3c2)c1 [Compound 43] |  |  | > 25
Fc1cc(C(F)(F)F)ccc1Nc1ccc2[nH]c(CSc3ccnc(C(F)(F)F)c3)nc2c1 [Compound 49] |  | 6.70 to 7.00 | > 25
Nc1cc(SCc2nc3cc(Nc4cccnc4)ccc3[nH]2)cc(C(F)(F)F)n1 [Compound 20] |  | 6.30 to 6.70 | > 25
Fc1cc(Nc2cccnc2)cc2nc(CSc3ccnc(C(F)(F)F)c3)[nH]c12 [Compound 58] |  | 6.30 to 6.70 | > 50
Fc1cccc(Nc2ccc3[nH]c(COc4ccnc(C(F)(F)F)c4)nc3c2)c1 [Compound 64] |  | 6.30 to 6.70 | > 25
FC(F)(F)Oc1ccccc1Nc1ccc2[nH]c(CSc3ccnc(C(F)(F)F)c3)nc2c1 [Compound 38] |  | 6.30 to 6.70 | 
COc1ccc(Nc2ccc3[nH]c(CSc4ccnc(C(F)(F)F)c4)nc3c2)cc1 [Compound 34] | 6.60 to 7.29 |  | > 25
Fc1ccc(C(F)(F)F)cc1Nc1ccc2[nH]c(CSc3ccnc(C(F)(F)F)c3)nc2c1 [Compound 50] |  | 6.30 to 6.70 | 
Nc1cccc(-c2ncc(CNc3cc(Cl)nc(C(F)(F)F)c3)cn2)c1 [Compound 10] |  | 6.00 to 6.30 | ≥ 100
FC(F)(F)c1cc(NCc2nc3cc(Nc4ccccc4)ccc3[nH]2)ccn1 [Compound 60] |  | 6.30 to 6.70 | ≥ 100
Nc1cc(SCc2nc3cc(Nc4cccc(F)c4)ccc3[nH]2)cc(C(F)(F)F)n1 [Compound 24] |  | ≥ 7.00 | > 10
Cc1cccc(Nc2ccc3[nH]c(CSc4ccnc(C(F)(F)F)c4)nc3c2)c1 [Compound 30] |  | 6.70 to 7.00 | > 10
Fc1ccc(F)c(Nc2ccc3[nH]c(CSc4ccnc(C(F)(F)F)c4)nc3c2)c1 [Compound 44] |  |  | > 25
Fc1ccc(F)c(Nc2cccc(-n3cc(CNc4cc(Cl)nc(C(F)(F)F)c4)nn3)c2)c1 [Compound 07] |  | 6.70 to 7.00 | > 25
FC(F)(F)c1cc(SCc2nc3ccc(Nc4ccccc4)cc3o2)ccn1 [Compound 15] | 6.60 to 7.29 | 6.30 to 6.70 | 
Fc1ccc(F)c(Nc2cccc(-n3cc(CNc4ccnc(C(F)(F)F)c4)nn3)c2)c1 [Compound 06] |  | 6.70 to 7.00 | > 10
Nc1cc(-c2ncc(CNc3cc(Cl)nc(C(F)(F)F)c3)cn2)ccc1Cl [Compound 11] |  | 6.00 to 6.30 | > 25
COc1cccc(Nc2ccc3[nH]c(CSc4ccnc(C(F)(F)F)c4)nc3c2)c1 [Compound 33] |  | 6.70 to 7.00 | > 10
FC(F)(F)c1cc(NCc2cn(-c3cccc(Nc4ccccc4)c3)nn2)ccn1 [Compound 02] | ≥ 7.30 | ≥ 7.00 | > 10
Fc1cc(Nc2ccccc2)cc2nc(CSc3ccnc(C(F)(F)F)c3)[nH]c12 [Compound 56] | ≥ 7.30 | ≥ 7.00 | > 25
Fc1cccc(F)c1Nc1ccc2[nH]c(CSc3ccnc(C(F)(F)F)c3)nc2c1 [Compound 42] | ≥ 7.30 | 6.70 to 7.00 | > 25
Cc1ccc(Nc2ccc3[nH]c(CSc4ccnc(C(F)(F)F)c4)nc3c2)cc1F [Compound 51] |  | ≥ 7.00 | 
Cc1ccc(Nc2ccc3[nH]c(CSc4ccnc(C(F)(F)F)c4)nc3c2)cc1 [Compound 31] |  | 6.70 to 7.00 | > 10
FC(F)(F)c1cc(OCc2nc3cc(Nc4ccccc4Cl)ccc3[nH]2)ccn1 [Compound 65] |  | 6.30 to 6.70 | 
Fc1cccc(Nc2ccc3[nH]c(CSc4ccnc(C(F)(F)F)c4)nc3c2)c1F [Compound 46] | 6.60 to 7.29 | 6.30 to 6.70 | > 10
FC(F)(F)c1cc(SCc2nc3cc(Cc4ccccc4)ccc3[nH]2)ccn1 [Compound 12] | ≥ 7.30 | 6.30 to 6.70 | > 25
